Experimental data taken from patent US11530212B2, “Fluorescent probe compound for zinc ion, as well as preparation method and use thereof” (Wuyi University, priority 2019, dated 2022).

Key:
[1] = Fluorescence property test of probe with other metal ion solutions; settings: Mg^2+, Fe^2+, Cu^+, Cu^2+, Sn^4+, Co^2+, Mn^2+, K^+, Li^+, Ba^2+, Ca^2+, Cd^2+, Ni^2+, Fe^3+ or Al^3+; CH3OH-H2O (v:v=1:1); FIG. 3
Procedure: (§1) The fluorescence property of the fluorescent probe compound according to the present disclosure was measured, including the following steps:
(§2) (1) Formulating a Probe Solution:
(§3) formulating a solution of 2-(7-(2,8-dimethyl quinoline-6-yl)-5,6,7,8-tetrahydro-1,8-naphthyridin-2-yl) phenol with a concentration of 100 μM in methanol, i.e. a probe solution, and stored at room temperature.
(§4) (2) Formulating Metal Ion Solutions: […]
(§5) the metal ions including: Mg^2+, Fe^2+, Cu^+, Cu^2+, Sn^4+, Co^2+, Mn^2+, K^+, Li^+, Ba^2+, Ca^2+, Cd^2+, Ni^2+, Fe^3+, Al^3+ and Zn^2+; and the respectively solutions of them were prepared from the corresponding hydrochloride salts thereof. Taking a certain amount of metal salts, dissolved in 10 mL of distilled water to formulate a 10-2 mol/L metal ion solution, and stored for later use.
(§6) (3) Fluorescence Property Test:
(§7) formulating solution to be tested: taking 0.5 mL of the formulated probe solution and 0.5 mL of the formulated metal ion solution, mixing with 4 mL solution of a CH3OH—H2O (v:v=1:1) to obtain a solution to be tested of the metal ion.
(§8) formulating blank solution: taking 0.5 mL of the formulated probe solution, mixed with solution of 2.5 mL water and 2 mL methanol.
(§9) analyzing the fluorescence intensity of solution to be tested by fluorescence spectrum, and the analysis result was shown in FIG. 3.

[2] = Competitive experiment: Zn^2+ detection in presence of other metal ions; settings: Zn^2+ solution (10 NM) plus other metal ion of the same concentration; FIG. 3
Procedure: In order to further verify the specificity of the zinc ion fluorescent probe compound to the zinc ion, a competitive experiment was conducted: adding the Zn^2+ solution (10 NM) into the probe solution formulated in step (1) together with a solution of any other one of the aforesaid metal ions of the same concentration; testing the effects of other competitive ions on the Zn^2+ selectivity of the zinc ion fluorescent probe compound respectively. The test results were shown in FIG. 3 (all test solution was uniformly labeled as “zinc ion fluorescent probe compound+M+Zn”).

[3] = Fluorescence property test of probe with metal ion solution; settings: Zn^2+ solution; CH3OH-H2O (v:v=1:1); FIG. 3
Procedure: as §1, §2, §3, §4, §5, §6, §7, §8, §9

[4] = Fluorescence titration with different concentrations of Zn^2+ (detection range and limit); settings: Zn^2+ concentration 4×10^-6 M; FIG. 4
Procedure: Different concentrations of Zn^2+ were added into the probe solution formulated in step (1) to test the fluorescence property of the probe solution, so as to determine the detection range and detection limit for Zn^2+ of the fluorescent probe compound.

Cc1ccc2cc(C3CCc4ccc(-c5ccccc5O)nc4N3)cc(C)c2n1 (stereo not shown) [fluorescent probe compound, 2-(7-(2,8-dimethylquinoline-6-yl)-5,6,7,8-tetrahydro-1,8-naphthyridin-2-yl) phenol]
fluorescence intensity change (F/F0) of the solution to be tested [1]: changed slightly | change of Zn^2+ detection before and after addition of other competitive ions [2]: almost no change | fluorescence intensity change (F/F0) of the solution to be tested [3]: significant fluorescence decay | fluorescence intensity of the compound [4]: dramatic decay
